Data on five substances can be found in patent publication US9586993B2, “CD44v6-derived peptides for treating pancreatic cancer” (AMCURE GMBH, priority 2012, dated 2017).

Series [1] concerns HGF induced activation of the receptor tyrosine kinase Met and ERK. In words: HGF-induced activation of Met and ERK in BSp73ASs6 cells (western blot). The series is classed as cell-based, rat. To be noted: HGF 10 ng/ml, peptide added 10 min before induction. How it is done:
(§1) Serum-starved cells (24 hours) were induced with the growth factor HGF (10 ng/mL) at 37° C. for 5 minutes. Where indicated, the cells were treated with peptides (100 ng/ml) prior to induction at 37° C. for 10 minutes (100 ng/mL CD44v6 peptide or control peptide). Following the induction with HGF, cells were washed with ice-cold phosphate-buffered saline (PBS). To detect activated Met and Erk, cells were lysed in sodium dodecyl sulfate (SDS)-sample buffer containing 100 mM dithiothreitol (DTT), boiled and subjected to western blot analysis using antibodies against phospho-Met and ERK. The loading controls were performed on the same blot after stripping (62.5 mM Tris, pH 6.8, 2% SDS, 0.8% DTT) by probing with the Met respectively ERK antibody. Blots were stained using the enhanced chemiluminescence system (Thermo Fisher Scientific, Schwerte, Germany). Bands in western blot analysis were quantified with the program Image J (National Institutes of Health).
The PEG-control peptide and PEG-rat CD44v6 peptide were compared for their ability to block HGF induced activation of the receptor tyrosine kinase Met and ERK. […]
Activation of ERK and Met was determined by standard SDS and Western Blotting techniques using a phospho-Met and phospho-Erk specific antibody (phospho-Met clone D16 cell signaling, phospho-Erk p42/44 cell signaling)

The next series relates to Met. To be noted: Matzke et al., Cancer Res. (2005), cited from earlier work.
In the next series the test system is BSp73ASs6 cells. Kind of series: Staining of fixed BSp73ASs6 cells with DY681-labeled peptides. The class given is binding, rat. To be noted: DY681-labeled peptide, one hour. As to the method:
(§2) ASs6 or L3.6p1 cells were seeded at 5,000 cells/well of a Lab-Tek® Chamber Slide™ (Nunc, Napierville, Ill., USA). On the following day the cells were washed with cold PBS and fixed with 4% Formalin for 30 min at RT. Unspecific binding was blocked with 1% BSA in PBS for 1 hour at RT. The cells were incubated for 1 hour with the DY681-labeled peptides. After three washing steps with PBS the cover slips were mounted with Fluorescence Mounting Medium (Dako, Glostrup, Denmark) and the immunofluorescence was measured by a laser scanning confocal microscope Leica TCS2 SP2 (Exton, Pa., USA) and processed using Leica confocal software. A 20× objective was used for imaging.

A further series has as its system BSp73ASs6 tumors. To be noted: rat, iv.
For the next series, the system named is L3.6p1 tumors. Kind of series: In vivo and ex vivo imaging with Pearl Imager of mice bearing L3.6p1 tumors. More on the design: species or system mouse. As to the method:
In vivo imaging of the mice with the L3.6p1 tumors was performed using the Pearl™ Imager (LI-COR Biosciences, Bad Homburg, Germany) The system uses two lasers (685 and 785 nm) for excitation and a charge-coupled device detector for signal detection. The laser excitation enables a deep tissue penetration. With the near-infrared detection a high sensitivity due to the reduced tissue auto-fluorescence is achieved. In order to standardize the images we made use of the Pearl Cam Software. The animals were fed with chlorophyll-reduced food to reduce the fluorescence background one week before imaging (Regime 210, safe-diets, Augy, France). Prior to imaging the mice were anesthetized with 2.0% isoflurane. Animals were placed on the heated plate of the imager and continuous delivery of isoflurane was achieved through a nose cone in the imaging drawer. Images were captured at white light, 700 and 800 nm Animals were imaged prior to i.v. peptide injection and 24 h after injection with either DY681-labeled human v6 peptide or DY681-labeled rat v6 peptide as control Immediately after each imaging session animals were killed, tumor, liver and spleen isolated and scanned ex vivo at white light, 700 and 800 nm.

The subject of the next series is L3.6p1 cells. In words: Staining of L3.6p1 cells with DY681-labeled peptides. To be noted: DY681-labeled peptide. The class given is binding, human. How it is done:
as §2

Series [2] concerns Met activation and downstream signaling to ERK. Kind of series: HGF-induced activation of Met and ERK in L3.6p1 cells (western blot). Conditions: HGF 10 ng/ml. The class given is cell-based, human. How it is done:
as §1
To expand the studies to human pancreatic tumors, the highly metastatic human pancreatic carcinoma cells L3.6p1 (Bruns, et al. Neoplasia (1999), 1(1):50-62) were investigated. These cells originate from the […] cells that have been passaged several times in the liver and the pancreas, a step that rendered them more and more metastatic. It was confirmed that Met is dependent on CD44v6 for its activation and signaling in these cells (FIG. 4A). The L3.6p1 cells were treated with HGF in the presence or absence of a human v6 peptide of SEQ ID NO: 2 or SEQ ID NO:6 and Met activation and downstream signaling to ERK was measured.

The test system of series [3] is L3.6p1 pancreatic carcinoma cells. In words: Human orthotopic model, L3.6p1 cells in the pancreas of nude mice. The class given is in vivo, mouse. How it is done:
In the case of the human orthotopic model, L3.6p1 pancreatic carcinoma cells (passage 24-26) were suspended in Hank's balanced salt solution (Invitrogen, Karlsruhe, Germany) after trypsinization. The cells were injected orthotopically in the pancreas of male nude mice as described (Bruns C J et al. (1999) Neoplasia 1(1):50-62). Two groups of 15 mice each were injected i.p. 7 days later with either the human v6 peptide respectively rat control peptide (20 μg). For all experiments described and depicted herein either the rat 14mer control peptide or the human 14mer peptide were used. All experiments were then repeated with the rat 5mer control peptide or the human 5mer peptide (N-R-W-H-E, SEQ ID NO: 2). […] The injection was repeated three times per week for 21 days. Two days after the last treatment the animals were killed.
7 μm thick paraffin sections were deparaffinized and rehydrated. For P-Met staining antigen unmasking was achieved by boiling the slides in 1 mM EDTA pH 8.0 followed by incubation for 15 minutes at a sub-boiling temperature, for CD31 staining the sections were treated with Proteinase K (8 μg/ml) for 10 min at 37° C. For immunofluorescence staining of P-Met, unspecific binding was blocked with 5% goat serum (DAKO, Glostrup, Denmark) (diluted in 1×PBS/0.3% Triton X-100) for 60 minutes. In the case of immunohistochemistry, endogenous peroxidases were at first blocked with 3% H2O2 in PBS followed by incubation with biotin blocking system (Dako, Glostrup, Denmark) and then unspecific binding was inhibited by incubation with 5% FCS in PBS. The sections were incubated with the P-Met antibody (D26, dilution 1:50 in 1×PBS/1% BSA/0.3% Triton X-100), Met antibody (C-28, dilution 1:50), GFP antibody (sc-101525, dilution 1:50) or antibody (5 μg/ml) over night or VFF18 (5 μg/ml) o/n at 4° C. After washing in PBS the sections were incubated with Alexa Fluor R 546 goat anti-rabbit (in case of immunofluorescence P-Met and Met staining, dilution 1:500) or a biotinylated secondary antibody (for immunohistochemical stainings rabbit anti-rat antibody for VFF18 and CD31, goat anti-rabbit for P-Met, cleaved Caspase-3 and cleaved Caspase-8 and rabbit anti-mouse for GFP, dilution 1:500) for 45 minutes. For DAB (3,3′-diaminobenzidine) staining the sections were treated with a streptavidin-peroxidase conjugate (Dako, Glostrup, Denmark) and developed with DAB substrate system (3,3′-diaminobenzidine; Biozol, Eching, Germany) For immunofluorescence DAPI was used for nuclear staining.
The three CD44v6 specific compounds (v6 5mer, PEG840-v6 5mer and PEG2000-v6 5mer of human origin) and a control peptide were applied in three concentrations (2 μg, 20 μg, 200 μg per injection) three times per week i.p. for 4 weeks. One week before start of the treatment the L3.6p1 tumor cells were orthotopically implanted into nude mice.
Animals were implanted orthotopically with L3.6p1 cells. Tumor growth was allowed for one week before the treatment with the linear v6 14mer, the cyclic v6 8mer as well as the control peptide (rat v6 14mer) was started. All peptides were injected three times per week at a concentration of 0.2, 2 and 10 μg per injection for 3 weeks. At the end of the treatment animals were sacrificed.
A comparison of different CD44v6 peptide derivatives was performed in animals bearing a orthotopic L3.6p1 tumor. 10 groups of 5 animals each received a dose of 20 μg peptide per injection three times per week for 3 weeks with the compounds listed in Table 4. Three weeks after starting the treatment the animals were sacrificed and analyzed for macroscopic metastases and tumor volume.

Series [4] has the same test system. Described as above. The class given is in vivo, mouse. To be noted: dose reduction experiment, 0.2 to 20 μg per injection three times per week for 3 weeks.

Like-named read-outs stand apart in the source and are kept apart here. No end group written: not given here.

Procedure for BSp73ASs6 tumors: In vivo imaging of the subcutaneously grown BSp73ASs6 tumors in BD10 or BDX rats was performed using the near infrared fluorescence (NIRF)-imaging system Optix MX2 (ART, Montreal, Canada) as described earlier (Napp et al., Int J Cancer (2010), 127:1958-1974). To avoid autofluorescence of fur, rats were shaved around the tumor prior to imaging. Subsequently, animals were anesthetized using 2% isoflurane and gently fixed on the devices' heated plate for the entire time of data acquisition. To reduce fluorescence background, rats were fed with chlorophyll-reduced food (Provimi Kliba AG, Kaiseraugst, Switzerland) for one week prior NIRF imaging. All in vivo analyses were preceded by native scans of animals without any injection of the fluorescent probe. For in vivo analysis, rats were injected with 200 DY681-labeled rat v6 11mer peptide or the human v6 11mer peptide via the tail vein. […]
DY681 fluorescence was measured using excitation at 670 nm in combination with a 700 nm long-pass emission filter. […] Data sets were analyzed with OptiView (ART).
For in vivo experiments, BSp73ASs6 cells were injected subcutaneously into syngeneic rats. […] The accumulation of the fluorescence was measured in the tumor region by Optix MX2 at the indicated time points. […] Then, in vivo binding kinetics of the Dy681-labeled v6 peptides to the subcutaneous tumors were determined.

For “WFQNGWQGKNP (also: DY681 dye, position not given here) [DY681 mouse v6 peptide, mouse 11mer labeled with the fluorescent dye DY681, control, reference compound]”, the “inhibition of HGF-induced activation of Met and Erk” value in series [1] is “but not the mouse peptide inhibited Met activation”.
Turning to “A-R-W-H-A (ARWHA) [A-R-W-H-A (SEQ ID NO: 3)]”, the “inhibition of CD44v6 mediated activation of Met” value with Met is on record as “capable of abrogating Met activation”; with Met (listed as SEQ ID NO: 3), “still active in inhibiting CD44v6 mediated activation of Met”.
“WFENEWQGKNP (also: DY681 dye, position not given here) [DY681 rat v6 peptide]”: in the series on BSp73ASs6 cells, the “binding to BSp73ASs6 cells in tissue culture” value is “bound to BSp73ASs6 cells in tissue culture”. Besides, the “inhibition of HGF-induced activation of Met and Erk” value in series [1] is recorded as “inhibited Met activation”. Besides, the “time of maximum fluorescence intensity over the tumor area” value in the series on BSp73ASs6 tumors (in vivo) stood at 1 days. The “duration of high fluorescence intensity over the tumor area in vivo” value with BSp73ASs6 tumors is listed as “at least 2 days”.
“WFGNRWHEGYR (also: DY681 dye, position not given here) [DY681 human v6 peptide, human 11mer labeled with the fluorescent dye DY681]”: the “fluorescence in the tumor in vivo” value in the series with L3.6p1 tumors (one i.v. injection of 20 μg, 24 h after injection) is given as “accumulated specifically in the tumor”. Further, in the series with L3.6p1 tumors (organs excised 24 h after injection), the “ex vivo fluorescence in primary tumors, livers and spleens” value was “binding not only to primary tumors but also to areas of the liver”. In addition, the “binding to L3.6p1 cells in cell culture” value in the series with L3.6p1 cells was “bound to these cells in cell culture”. Also, the “inhibition of HGF-induced activation (phosphorylation) of Met and ERK” value in series [2] is on record as “inhibited Met activation in L3.6p1 cells”.
For “cy[KGNRWHEG] (also: cyclic, ring type not given here) [cycl. 8 mer]”, the “metastasis formation (liver)” value is “blocked metastatic spreading at 2 and 20 μg per injection very efficiently” in series [3] (2 μg per injection i.p. three times per week); “complete inhibition of metastasis” in series [3] (20 μg per injection i.p. three times per week, start one week after implantation, listed as cyclic 8mer); “blocked metastatic spreading at 2 and 20 μg per injection very efficiently” in [3] (20 μg per injection i.p. three times per week, start one week after implantation, listed as cyclic v6 8mer). The “outgrowth / size of the primary tumor” value in series [3] (20 μg per injection i.p. three times per week for three weeks, start one week after implantation) is on record as “strongest reduction of tumor size”. For the same substance, the “size / growth of the primary tumor” value in series [4] (listed as cyclic 8mer) is recorded as “reduces growth of the primary tumor”; in [4] (listed as cyclic v6 8mer) it was “drastic effect on growth of the primary tumor”.
